Measured values: patent EP0472181B1, “5-Amine substituted adenosine analogs as immunosuppressants” (MERRELL PHARMACEUTICALS INC., priority 1990, dated 1992)

Columns and labels:
[1] = test system: Cloned IL-2 dependent cytolytic T lymphocytes (CTLL-20); experiment: Inhibition of interleukin-2 dependent T-cell growth in vitro: cell counts by trypan blue exclusion; type: cell-based; details: 10 Units/mL IL-2
Description: Inhibition of interleukin-2 (IL-2) dependent T-cell growth in vitro was determined essentially as described by Bowlin et al. [Cell Immunol. 98, 341-50 (1986)]. Cloned IL-2 dependent cytolytic T lymphocytes (CTLL-20), incubated alone or in the presence of (cis)-5'-deoxy-5'-[(4-amino-2-butenyl) methylamino]adenosine (Compound A) at varying concentrations, were stimulated with 10 Units/mL of IL-2 and were grown in culture. After 72 hours, cell counts were determined based on trypan blue exclusion.
Inhibition of interleukin-2 (IL-2) dependent T-cell growth in vitro was determined essentially as described in Example X. Cloned IL-2 dependent cytolytic T lymphocytes (CTLL-20), incubated alone or in the presence of (cis)-5'-deoxy-5'-[(4-amino-2-butenyl) methylamino]adenosine (Compound A) at 100µM, were stimulated with 10 Units/mL of IL-2 and were grown in culture for 1, 2, 3 or 4 days. At the end of incubation, cell counts were determined based on trypan blue exclusion.

[2] = test system: Cloned IL-2 dependent cytolytic T lymphocytes (CTLL-20); experiment: Inhibition of interleukin-2 dependent T-cell growth in vitro: DNA synthesis activity by [^3H]-TdR pulse after IL-2 restimulation; type: cell-based; details: [^3H]-TdR final 6 hours
Description: The CTLL-20 cells were restimulated with IL-2 (10 units/mL) for 24 hours and were pulsed for the final 6 hours with [^3H]-TdR to measure DNA synthesis activity essentially as described by Bowlin et al. [Cell Immunol. 98, 341-50 (1986)].
The CTLL-20 cells were then restimulated with IL-2 (10 units/mL) for 24 hours and were pulsed for the final 6 hours with [^3H]-TdR to measure DNA synthesis activity essentially as described for Example X.

CN(C/C=C\CN)C[C@H]1O[C@@H](n2cnc3c(N)ncnc32)[C@H](O)[C@@H]1O (relative stereo) [Compound A, (cis)-5'-deoxy-5'-[(4-amino-2-butenyl)methylamino]adenosine]
Cell Count Number Recovered ([1]; Compound A 1 µM, after 72 hours): 4.0x10^6
Cell Count Number Recovered ([1]; Compound A 10 µM, after 72 hours): 2.0x10^6
Cell Count Number Recovered ([1]; Compound A 100 µM, after 72 hours): 1.0x10^6
inhibition at 100 µM ([1]; T-lymphocyte, 24 h, time course: incubation time 1 day, Compound A 100 µM, read-out: Cell Count (% Reduction over Control) (converted)): 40%
inhibition at 100 µM ([1]; T-lymphocyte, 48 h, time course: incubation time 2 days, Compound A 100 µM, read-out: Cell Count (% Reduction over Control) (converted)): 78%
inhibition at 100 µM ([1]; T-lymphocyte, 72 h, time course: incubation time 3 days, Compound A 100 µM, read-out: Cell Count (% Reduction over Control) (converted)): 85%
inhibition at 100 µM ([1]; T-lymphocyte, 96 h, time course: incubation time 4 days, Compound A 100 µM, read-out: Cell Count (% Reduction over Control) (converted)): 64%
inhibition at 1 µM ([1]; T-lymphocyte, Compound A 1 µM, after 72 hours, read-out: Cell Count (% Reduction over Group 1) (converted)): 39%
inhibition at 10 µM ([1]; T-lymphocyte, Compound A 10 µM, after 72 hours, read-out: Cell Count (% Reduction over Group 1) (converted)): 70%
inhibition at 100 µM ([1]; T-lymphocyte, Compound A 100 µM, after 72 hours, read-out: Cell Count (% Reduction over Group 1) (converted)): 85%
Cell Count Number Recovered ([1]; time course: incubation time 1 day, Compound A 100 µM): 0.3x10^6
Cell Count Number Recovered ([1]; time course: incubation time 2 days, Compound A 100 µM): 0.7x10^6
Cell Count Number Recovered ([1]; time course: incubation time 3 days, Compound A 100 µM): 1.0x10^6
Cell Count Number Recovered ([1]; time course: incubation time 4 days, Compound A 100 µM): 1.7x10^6
DNA Synthesis CPM ([2]; Compound A 1 µM, 72 hours culture, restimulated with IL-2 10 units/mL for 24 hours): 19218 CPM
DNA Synthesis CPM ([2]; Compound A 10 µM, 72 hours culture, restimulated with IL-2 10 units/mL for 24 hours): 10005 CPM
DNA Synthesis CPM ([2]; Compound A 100 µM, 72 hours culture, restimulated with IL-2 10 units/mL for 24 hours): 8114 CPM
inhibition at 100 µM ([2]; T-lymphocyte, 48 h, time course: incubation time 2 days, Compound A 100 µM, then IL-2 restimulation 24 hours, read-out: DNA Synthesis (% Reduction over Control)): 45%
inhibition at 100 µM ([2]; T-lymphocyte, 72 h, time course: incubation time 3 days, Compound A 100 µM, then IL-2 restimulation 24 hours, read-out: DNA Synthesis (% Reduction over Control)): 76%
inhibition at 100 µM ([2]; T-lymphocyte, 96 h, time course: incubation time 4 days, Compound A 100 µM, then IL-2 restimulation 24 hours, read-out: DNA Synthesis (% Reduction over Control)): 73%
inhibition at 1 µM ([2]; T-lymphocyte, Compound A 1 µM, 72 hours culture, restimulated with IL-2 10 units/mL for 24 hours, read-out: DNA Synthesis (% Reduction over Group 1)): 43%
inhibition at 10 µM ([2]; T-lymphocyte, Compound A 10 µM, 72 hours culture, restimulated with IL-2 10 units/mL for 24 hours, read-out: DNA Synthesis (% Reduction over Group 1)): 70%
inhibition at 100 µM ([2]; T-lymphocyte, Compound A 100 µM, 72 hours culture, restimulated with IL-2 10 units/mL for 24 hours, read-out: DNA Synthesis (% Reduction over Group 1)): 76%
inhibition at 100 µM ([2]; T-lymphocyte, time course: incubation time 1 day, Compound A 100 µM, then IL-2 restimulation 24 hours, read-out: DNA Synthesis (% Reduction over Control)): 59%
DNA Synthesis CPM ([2]; time course: incubation time 1 day, Compound A 100 µM, then IL-2 restimulation 24 hours): 7622 CPM
DNA Synthesis CPM ([2]; time course: incubation time 2 days, Compound A 100 µM, then IL-2 restimulation 24 hours): 6197 CPM
DNA Synthesis CPM ([2]; time course: incubation time 3 days, Compound A 100 µM, then IL-2 restimulation 24 hours): 8114 CPM
DNA Synthesis CPM ([2]; time course: incubation time 4 days, Compound A 100 µM, then IL-2 restimulation 24 hours): 8863 CPM
